The values below come from US10065963B2 (Incyte Corporation, priority 2015, dated 2018).

Structures can show the parent of a compound that is named as a salt. Where two headings read alike, the source gives them in different places.

Test [1] deals with Phosphorylated Ribosomal Protein S6 (RPS6) in THP-1 cells. The experiment in a line: THP-1 RPS6 ELISA assay. To be noted: 10 nM MCP-1, read-out: PI3Kγ_THP1_RPS6_ELISA IC50. It counts as cell-based, human. On the technique in general: In an ELISA, binding on a coated surface is turned into a signal by an enzyme label.
Test [2] deals with PI3Kδ (p110δ/p85α) Recombinant Human Protein (Homo sapiens (Human), UniProt O00329). The experiment in a line: PI3Kδ scintillation proximity assay. It counts as biochemical. To be noted: 2 μM ATP, 20 μM PIP2.
The target in test [3] is PI3Kγ (p110γ) Recombinant Human Protein (Homo sapiens (Human), UniProt P48736). The experiment in a line: PI3K-γ scintillation proximity assay. It counts as biochemical. To be noted: 2 μM ATP, 20 μM PIP2.
The mark [4] stands for this setting: Homo sapiens, THP-1, THP-1 cells.

PI3Kδ (p110δ/p85α) Recombinant Human Protein, sequence (O00329 whole entry): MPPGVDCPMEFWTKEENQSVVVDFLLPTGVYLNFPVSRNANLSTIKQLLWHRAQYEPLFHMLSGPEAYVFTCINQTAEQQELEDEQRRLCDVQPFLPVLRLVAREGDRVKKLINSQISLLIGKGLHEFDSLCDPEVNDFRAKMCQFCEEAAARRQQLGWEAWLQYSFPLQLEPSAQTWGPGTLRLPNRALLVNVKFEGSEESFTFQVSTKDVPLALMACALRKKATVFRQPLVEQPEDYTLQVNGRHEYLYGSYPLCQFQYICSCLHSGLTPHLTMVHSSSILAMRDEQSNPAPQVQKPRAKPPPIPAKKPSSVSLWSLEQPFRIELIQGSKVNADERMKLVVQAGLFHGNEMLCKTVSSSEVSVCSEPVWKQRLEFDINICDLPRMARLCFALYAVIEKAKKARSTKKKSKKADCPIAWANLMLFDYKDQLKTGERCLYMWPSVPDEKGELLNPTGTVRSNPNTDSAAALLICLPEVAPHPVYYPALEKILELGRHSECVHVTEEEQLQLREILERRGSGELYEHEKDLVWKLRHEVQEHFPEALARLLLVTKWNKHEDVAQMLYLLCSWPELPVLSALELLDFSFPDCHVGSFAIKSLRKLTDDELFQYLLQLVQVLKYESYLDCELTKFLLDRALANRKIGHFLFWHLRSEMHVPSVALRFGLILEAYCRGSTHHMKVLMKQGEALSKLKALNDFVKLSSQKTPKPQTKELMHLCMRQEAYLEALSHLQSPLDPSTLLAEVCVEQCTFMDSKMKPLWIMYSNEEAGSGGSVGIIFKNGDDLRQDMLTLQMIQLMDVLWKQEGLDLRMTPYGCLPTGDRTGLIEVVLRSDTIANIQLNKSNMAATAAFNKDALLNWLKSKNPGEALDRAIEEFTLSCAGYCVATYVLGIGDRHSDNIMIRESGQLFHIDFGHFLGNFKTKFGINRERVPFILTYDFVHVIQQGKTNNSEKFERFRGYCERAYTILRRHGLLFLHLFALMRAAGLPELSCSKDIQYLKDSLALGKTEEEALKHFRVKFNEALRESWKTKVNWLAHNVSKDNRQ
PI3Kδ (p110δ/p85α) Recombinant Human Protein, sequence (P27986 whole entry partner): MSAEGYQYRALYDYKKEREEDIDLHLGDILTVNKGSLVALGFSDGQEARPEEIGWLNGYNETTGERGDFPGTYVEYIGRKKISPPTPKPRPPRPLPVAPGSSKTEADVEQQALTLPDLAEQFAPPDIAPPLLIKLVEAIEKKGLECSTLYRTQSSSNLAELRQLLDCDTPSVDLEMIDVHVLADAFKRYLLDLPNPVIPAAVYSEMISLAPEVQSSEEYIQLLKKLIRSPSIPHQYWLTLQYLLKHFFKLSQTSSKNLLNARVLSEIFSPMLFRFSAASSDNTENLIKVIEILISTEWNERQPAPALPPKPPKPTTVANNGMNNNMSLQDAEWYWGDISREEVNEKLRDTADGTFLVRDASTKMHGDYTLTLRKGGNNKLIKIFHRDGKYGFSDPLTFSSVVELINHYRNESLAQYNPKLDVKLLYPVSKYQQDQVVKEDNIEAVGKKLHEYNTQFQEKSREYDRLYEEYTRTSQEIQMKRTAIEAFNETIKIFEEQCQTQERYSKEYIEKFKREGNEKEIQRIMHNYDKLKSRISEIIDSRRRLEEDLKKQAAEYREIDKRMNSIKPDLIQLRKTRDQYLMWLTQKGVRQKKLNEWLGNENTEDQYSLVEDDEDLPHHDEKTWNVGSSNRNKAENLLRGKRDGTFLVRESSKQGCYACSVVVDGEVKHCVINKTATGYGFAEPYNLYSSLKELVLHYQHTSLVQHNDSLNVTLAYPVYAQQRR
PI3Kγ (p110γ) Recombinant Human Protein, sequence (P48736 whole entry): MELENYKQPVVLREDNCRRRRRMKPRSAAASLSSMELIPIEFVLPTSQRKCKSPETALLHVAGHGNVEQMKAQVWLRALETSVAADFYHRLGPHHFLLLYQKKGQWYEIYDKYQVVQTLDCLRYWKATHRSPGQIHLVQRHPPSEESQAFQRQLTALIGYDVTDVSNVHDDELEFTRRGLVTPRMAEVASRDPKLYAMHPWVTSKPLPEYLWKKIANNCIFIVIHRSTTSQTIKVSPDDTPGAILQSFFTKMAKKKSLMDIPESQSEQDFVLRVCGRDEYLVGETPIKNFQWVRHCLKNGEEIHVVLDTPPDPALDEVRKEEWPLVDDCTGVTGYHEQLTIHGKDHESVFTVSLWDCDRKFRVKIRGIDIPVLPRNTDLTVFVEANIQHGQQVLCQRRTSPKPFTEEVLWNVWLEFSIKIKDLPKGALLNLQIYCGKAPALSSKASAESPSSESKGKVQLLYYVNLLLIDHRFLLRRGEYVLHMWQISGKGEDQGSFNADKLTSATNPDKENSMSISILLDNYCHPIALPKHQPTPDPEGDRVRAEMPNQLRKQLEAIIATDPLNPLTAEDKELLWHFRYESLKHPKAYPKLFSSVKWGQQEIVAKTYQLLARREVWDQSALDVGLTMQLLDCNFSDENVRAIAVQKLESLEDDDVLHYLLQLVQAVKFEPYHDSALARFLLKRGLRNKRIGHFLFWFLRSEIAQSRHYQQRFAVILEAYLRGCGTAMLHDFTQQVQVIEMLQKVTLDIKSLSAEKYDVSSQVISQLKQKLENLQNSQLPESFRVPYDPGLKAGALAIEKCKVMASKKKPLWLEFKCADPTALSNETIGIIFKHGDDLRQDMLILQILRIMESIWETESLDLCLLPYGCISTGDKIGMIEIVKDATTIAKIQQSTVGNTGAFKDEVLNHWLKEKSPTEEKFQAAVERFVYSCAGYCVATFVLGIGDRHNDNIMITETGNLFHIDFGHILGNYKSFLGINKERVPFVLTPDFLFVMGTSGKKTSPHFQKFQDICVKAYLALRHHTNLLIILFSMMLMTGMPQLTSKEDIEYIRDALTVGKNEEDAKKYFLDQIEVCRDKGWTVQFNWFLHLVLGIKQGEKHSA

Consider `CC(NC(=O)c1c(N)nn2cccnc12)c1cc(Cl)c2cn[nH]c2c1OC(F)F` (stereo not drawn) [Example 83, 2-Amino-N-(1-(4-chloro-7-(difluoromethoxy)-1H-indazol-6-yl)ethyl)pyrazolo[1,5-a]pyrimidine-3-carboxamide trifluoroacetate], for which the IC50 (as a rule, the point on the concentration scale where inhibition reaches its midpoint) in test [1] (setting [4]) was less than 0.5 µM; in test [2], less than 0.1 µM; in test [3], less than 0.1 µM.

In the case of `CC(NC(=O)c1c(N)nn2cccnc12)c1cc(Cl)c2cn[nH]c2c1OCCO` (stereo not drawn) [Example 84, 2-Amino-N-(1-(4-chloro-7-(2-hydroxyethoxy)-1H-indazol-6-yl)ethyl)pyrazolo[1,5-a]pyrimidine-3-carboxamide trifluoroacetate], the IC50 in test [1] (setting [4]) was less than 0.5 µM; in test [2] it was less than 0.1 µM; in test [3], less than 0.1 µM.

Consider `CC(NC(=O)c1c(N)nn2cccnc12)c1cc(Cl)c2cn[nH]c2c1OCC(O)CO` (stereo not drawn) [Example 85, 2-Amino-N-(1-(4-chloro-7-(2,3-dihydroxypropoxy)-1H-indazol-6-yl)ethyl)pyrazolo[1,5-a]pyrimidine-3-carboxamide trifluoroacetate], for which the values for the IC50 in test [1] (setting [4]), in test [2] and in test [3] were less than 0.5 µM, less than 0.1 µM and less than 0.1 µM, respectively.

`CCOc1c(C(C)NC(=O)c2c(N)nn3cccnc23)cc(Cl)c2c(C#N)n[nH]c12` (stereo not drawn) [Example 86, 2-Amino-N-(1-(4-chloro-3-cyano-7-ethoxy-1H-indazol-6-yl)ethyl)pyrazolo[1,5-a]pyrimidine-3-carboxamide trifluoroacetate]: the IC50 in test [1] (setting [4]) was more than 1 µM; in test [2] it was less than 0.5 µM; in test [3], less than 0.1 µM.

In the case of `CC(NC(=O)c1c(N)nn2cccnc12)c1cc(Cl)c2cncn2c1N1CCC(C)(O)CC1` (stereo not drawn) [Example 87, 2-Amino-N-(1-(8-chloro-5-(4-hydroxy-4-methylpiperidin-1-yl)imidazo[1,5-a]pyridin-6-yl)ethyl)pyrazolo[1,5-a]pyrimidine-3-carboxamide trifluoroacetate], the half-maximal inhibitory concentration (IC50) in test [1] (setting [4]) was less than 0.5 µM; in test [2], less than 0.5 µM; in test [3] it was less than 0.1 µM.

On to `CC(NC(=O)c1c(N)nn2cccnc12)c1cc(Cl)c2cncn2c1N1CCC(C)(C#N)CC1` (stereo not drawn) [Example 88, 2-Amino-N-(1-(8-chloro-5-(4-cyano-4-methylpiperidin-1-yl)imidazo[1,5-a]pyridin-6-yl)ethyl)pyrazolo[1,5-a]pyrimidine-3-carboxamide trifluoroacetate], for which the results for the IC50 in test [1] (setting [4]), in test [2] and in test [3] were less than 0.5 µM, less than 0.1 µM and less than 0.1 µM, respectively.

For the compound `CC(NC(=O)c1c(N)nn2cccnc12)c1cc(Cl)c2cncn2c1N1CCC(O)(C(F)(F)F)CC1` (stereo not drawn) [Example 89, 2-Amino-N-(1-(8-chloro-5-(4-hydroxy-4-(trifluoromethyl)piperidin-1-yl)imidazo[1,5-a]pyridin-6-yl)ethyl)pyrazolo[1,5-a]pyrimidine-3-carboxamide trifluroacetate], the values for the IC50 in test [1] (THP-1 cells), in test [2] and in test [3] were less than 0.5 µM, less than 0.5 µM and less than 0.1 µM, respectively.

On to `COC1CCN(c2c(C(C)NC(=O)c3c(N)nn4cccnc34)cc(Cl)c3cn[nH]c23)C1` (stereo not drawn) [Example 91, 2-Amino-N-{1-[4-chloro-7-(3-methoxypyrrolidin-1-yl)-2H-indazol-6-yl]ethyl}pyrazolo[1,5-a]pyrimidine-3-carboxamide bis(trifluoroacetate)], for which the IC50 in test [1] (setting [4]) is less than 1 µM; in test [2] it was less than 0.1 µM; in test [3] it was less than 0.1 µM.

In the case of `CNS(=O)(=O)C1CCN(c2c(C(C)NC(=O)c3c(N)nn4cccnc34)cc(Cl)c3cn[nH]c23)C1` (stereo not drawn) [Example 92, 2-Amino-N-[1-(4-chloro-7-{3-[(methylamino)sulfonyl)pyrrolidin-1-yl}-2H-indazol-6-yl)ethyl]pyrazolo[1,5-a]pyrimidine-3-carboxamide], the IC50 was less than 0.5 µM in test [1] (setting [4]), less than 0.5 µM in test [2] and less than 0.1 µM in test [3].

In the case of `CC(NC(=O)c1c(N)nn2cccnc12)c1cc(Cl)c2cn[nH]c2c1N1CCC(S(=O)(=O)N(C)C)CC1` (stereo not drawn) [Example 93, 2-Amino-N-[1-(4-chloro-7-{4-[(dimethylamino)sulfonyl]piperidin-1-yl}-2H-indazol-6-yl)ethyl]pyrazolo[1,5-a]pyrimidine-3-carboxamide], the IC50 in test [1] (setting [4]) was more than 1 µM; in test [2], less than 2 µM; in test [3], less than 0.1 µM.

Regarding `CC(NC(=O)c1c(N)nn2cccnc12)c1cc(Cl)c2cn[nH]c2c1N1CCS(=O)(=O)CC1` (stereo not drawn) [Example 94, 2-Amino-N-{1-[4-chloro-7-(1,1-dioxidothiomorpholin-4-yl)-2H-indazol-6-yl]ethyl}pyrazolo[1,5-a]pyrimidine-3-carboxamide trifluoroacetate], the IC50 was less than 0.5 µM in test [1] (setting [4]), less than 0.5 µM in test [2] and less than 0.1 µM in test [3].

Take `CC(=O)N[C@H]1CCN(c2c(C(C)NC(=O)c3c(N)nn4cccnc34)cc(Cl)c3cn[nH]c23)C1` (stereo partly drawn) [Example 95, N-(1-{7-[(3S)-3-(Acetylamino)pyrrolidin-1-yl]-4-chloro-2H-indazol-6-yl}ethyl)-2-aminopyrazolo[1,5-a]pyrimidine-3-carboxamide trifluoroacetate]: the values for the concentration for half-maximal inhibition (IC50) in test [1] (setting [4]), in test [2] and in test [3] were less than 1 µM, less than 0.1 µM and less than 0.1 µM, respectively.

In the case of `CC(NC(=O)c1c(N)nn2cccnc12)c1cc(Cl)c2cn[nH]c2c1N1CC[C@H](NS(C)(=O)=O)C1` (stereo partly drawn) [Example 96A, 2-Amino-N-[1-(4-chloro-7-{(3S)-3-[(methylsulfonyl)amino]pyrrolidin-1-yl}-2H-indazol-6-yl)ethyl]pyrazolo[1,5-a]pyrimidine-3-carboxamide trifluoroacetate], the values for the IC50 in test [1] (setting [4]), in test [2] and in test [3] were less than 1 µM, less than 0.1 µM and less than 0.1 µM, respectively.

Turning to `CC(NC(=O)c1c(N)nn2cccnc12)c1cc(Cl)c2cn[nH]c2c1N1CC[C@@H](NS(C)(=O)=O)C1` (stereo partly drawn) [Example 96B, 2-Amino-N-[1-(4-chloro-7-{(3R)-3-[(methylsulfonyl)amino]pyrrolidin-1-yl}-2H-indazol-6-yl)ethyl]pyrazolo[1,5-a]pyrimidine-3-carboxamide trifluoroacetate], the results for the IC50 in test [1] (setting [4]), in test [2] and in test [3] were more than 1 µM, less than 0.1 µM and less than 0.1 µM, respectively.

For `CCOC(=O)C1CC=C(c2c(C(C)NC(=O)c3c(N)nn4cccnc34)cc(Cl)c3cn[nH]c23)CC1` (stereo not drawn) [Example 97, Ethyl 4-[6-(1-{[(2-aminopyrazolo[1,5-a]pyrimidin-3-yl)carbonyl]amino}ethyl)-4-chloro-2H-indazol-7-yl]cyclohex-3-ene-1-carboxylate bistrifluoroacetate], the IC50 in test [1] (setting [4]) was less than 1 µM; in test [2], less than 0.5 µM; in test [3] it was less than 0.1 µM.

On to `COC1CC=C(c2c(C(C)NC(=O)c3c(N)nn4cccnc34)cc(Cl)c3cn[nH]c23)CC1` (stereo not drawn) [Example 100, 2-Amino-N-{1-[4-chloro-7-(4-methoxycyclohex-1-en-1-yl)-2H-indazol-6-yl]ethyl}pyrazolo[1,5-a]pyrimidine-3-carboxamide trifluoroacetate], for which the IC50 in test [1] (setting [4]) is more than 1 µM; in test [2], less than 0.5 µM; in test [3], less than 0.1 µM.

Take `CC(NC(=O)c1c(N)nn2cccnc12)c1cc(Cl)c2cn[nH]c2c1C1=CCC(C#N)CC1` (stereo not drawn) [Example 101, 2-Amino-N-{1-[4-chloro-7-(4-cyanocyclohex-1-en-1-yl)-2H-indazol-6-yl]ethyl}pyrazolo[1,5-a]pyrimidine-3-carboxamide trifluoroacetate]: the results for the IC50 in test [1] (setting [4]), in test [2] and in test [3] were less than 0.5 µM, less than 0.5 µM and less than 0.1 µM, respectively.
